Laboratory results as given in patent US20230373989A1, “N-PHENYLAMINOCARBONYL PYRIDINO-, PYRIMIDINO AND BENZO-TROPANES AS MODULATORS OF GPR65” (PATHIOS THERAPEUTICS LIMITED, priority 2020, published 2023).
pIC50: −log10 of the molar value.

These compounds were tested against T1, human recombinant GPR65 (Homo sapiens, UniProt Q8IYL9) (assay: Human GPR65 cAMP HTRF antagonist assay). Conditions: not given.
T1 construct: host or cells: 1321N1 human astrocytoma cells (1321N1-hrGPR65)
Assay type: cell-based
Description: In one preferred embodiment, the compound prevents the increase in cytoplasmic cAMP levels expected following GPR65 activation at acidic pH. This prevention of cAMP accumulation in turn prevents downstream signalling through ICER, as described above. The “Human GPR65 cyclic adenosine monophosphate (cAMP) Homogeneous Time Resolved Fluorescence (HTRF) antagonist assay”, or simply “cAMP assay”, as described in the accompanying examples, can be used to measure the potency of GPR65 modulators, which is expressed as the concentration of compound required to reduce the increase in cAMP concentration upon GPR65 activation by 50% (i.e. an IC50).
Human GPR65 Cyclic Adenosine Monophosphate (cAMP) Homogeneous Time Resolved Fluorescence (HTRF) Antagonist Assay Procedure
IC50 data was obtained by the following procedure:
1321N1 human astrocytoma cells stably expressing human recombinant GPR65 (1321N1-hrGPR65 cells, EuroscreenFast) were cultured according to the vendor's instructions.
Compounds were tested for their ability to antagonise GPR65, through measuring the concentration of cytoplasmic cAMP following treatment of the cells at a pH of 7.2 to activate GPR65 signalling and addition of the compound to be tested. The extent to which the expected rise in cAMP concentration upon GPR65 activation was suppressed by the added compound is indicative of its potency. The assay was carried out according to EuroscreenFast assay methodology as follows.
On the day of the assay, test compounds were added to 384-well, low volume, white microtiter plates by acoustic dispensing. KRH buffer (5 mM KCl, 1.25 mM MgSO4, 124 mM NaCl, 25 mM HEPES, 13.3 mM Glucose, 1.25 mM KH2PO4 and 1.45 mM CaCl2) was adjusted to pH 6.5, pH 7.6 and pH 8.4 by adding NaOH. 1321N1-hGPR65 cells were rapidly thawed and diluted in KRH, pH 7.6 prior to centrifugation at 300×g for 5 min and resuspension in assay buffer (KRH, pH 7.6, supplemented with 1 mM 3-isobutyl-1-methylxanthine (IBMX) and 200 μM ethylenediaminetetraacetic acid (EDTA)). Cells were added to assay plates at a density of 2,000 cells per well in a volume of 5 μl. Assay plates were briefly centrifuged at 100×g and then incubated at room temperature for 30 min. Cells were stimulated by the addition of 5 μL KRH, pH 6.5, to achieve an assay pH of 7.2, while control wells received 5 μl KRH, pH 8.4 to achieve an assay pH of 7.9. Assay plates were briefly centrifuged at 100×g and then incubated at room temperature for 30 min.
Accumulation of cAMP was detected by cAMP HTRF kit (Cisbio). d2-labeled cAMP and cryptate-labeled anti-cAMP antibody in Lysis and Detection Buffer (Cisbio) were added to assay plates, and the plates were incubated at room temperature for 1 h. HTRF measurements were performed using a Pherastar FSX instrument. Acceptor and donor emission signals were measured at 665 nm and 620 nm, respectively, and HTRF ratios were calculated as signal665 nm/signal620 nm×104. Data were normalised to high and low control values and fitted with 4-parameter logistic regression to determine hGPR65 IC50 values for the test compounds, which are shown in Table 1.

T1 sequence (Q8IYL9 whole entry): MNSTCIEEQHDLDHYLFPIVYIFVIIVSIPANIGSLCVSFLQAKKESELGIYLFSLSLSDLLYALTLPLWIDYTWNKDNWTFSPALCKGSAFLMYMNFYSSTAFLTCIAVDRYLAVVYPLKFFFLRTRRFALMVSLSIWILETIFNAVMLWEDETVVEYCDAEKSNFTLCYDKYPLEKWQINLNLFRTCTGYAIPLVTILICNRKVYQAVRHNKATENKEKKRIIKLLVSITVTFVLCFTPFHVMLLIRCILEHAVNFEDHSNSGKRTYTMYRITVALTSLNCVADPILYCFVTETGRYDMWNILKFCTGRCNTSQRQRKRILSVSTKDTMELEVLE

SMILES | pIC50
COC(=O)c1cc(NC(=O)N2[C@H]3CC[C@@H]2c2ccnc(F)c2C3)c(F)cc1Cl [Compound 125, Methyl 2-chloro-4-fluoro-5-((5R,8S)-1-fluoro-6,7,8,9-tetrahydro-5H-5,8-epiminocyclohepta[c]pyridine-10-carboxamido)benzoate] | > 6.30
O=C(Nc1cccc(OC(F)(F)F)c1)N1C2CCC1c1ccnc(F)c1C2 (racemic) [Compound 171, (±)-1-Fluoro-N-(3-(trifluoromethoxy)phenyl)-6,7,8,9-tetrahydro-5H-5,8-epiminocyclohepta[c]pyridine-10-carboxamide] | > 6.30
O=C(Nc1ccc(Cl)c(Cl)c1)N1C2CCC1c1ccncc1C2 (racemic) [Compound 36, (±)-N-(3,4-Dichlorophenyl)-6,7,8,9-tetrahydro-5H-5,8-epiminocyclohepta[c]pyridine-10-carboxamide] | > 6.30
O=C(Nc1ccc(C(F)(F)F)cc1F)N1[C@H]2CC[C@@H]1c1ccnc(F)c1C2 [Compound 120, (5R,8S)-1-Fluoro-N-(2-fluoro-4-(trifluoromethyl)phenyl)-6,7,8,9-tetrahydro-5H-5,8-epiminocyclohepta[c]pyridine-10-carboxamide] | > 6.30
O=C(Nc1ccc(Cl)c(Cl)c1)N1[C@H]2CC[C@@H]1c1cnc(F)cc1C2 [Compound 91, (6S,9R)-N-(3,4-Dichlorophenyl)-3-fluoro-6,7,8,9-tetrahydro-5H-6.9-epiminocyclohepta[c]pyridine-10-carboxamide] | > 6.30
O=C(Nc1ccc(OC(F)(F)F)c(Cl)c1)N1[C@H]2CC[C@@H]1c1c[nH]c(=O)cc1C2 [Compound 128, (6S,9R)-N-(3-Chloro-4-(trifluoromethoxy)phenyl)-3-oxo-3,5,6,7,8,9-hexahydro-2H-6,9-epiminocyclohepta[c]pyridine-10-carboxamide] | > 6.30
O=C(Nc1ccc(C(F)(F)F)c(Cl)c1)N1C2CCC1c1cncnc1C2 (racemic) [Compound 2, (±)-N-(3-Chloro-4-(trifluoromethyl)phenyl)-6,7,8,9-tetrahydro-5H-5,8-epiminocyclohepta[d]pyrimidine-10-carboxamide] | > 6.30
O=C(Nc1ccc(Oc2ccccc2)cc1)N1[C@H]2CC[C@@H]1c1ccnc(F)c1C2 [Compound 185, (5R,8S)-1-Fluoro-N-(4-phenoxyphenyl)-6,7,8,9-tetrahydro-5H-5,8-epiminocyclohepta[c]pyridine-10-carboxamide] | > 6.30
N#Cc1cc(Cl)c(Cl)cc1NC(=O)N1[C@H]2CC[C@@H]1c1ccnc(F)c1C2 [Compound 98, (5R,8S)-N-(4,5-Dichloro-2-cyanophenyl)-1-fluoro-6,7,8,9-tetrahydro-5H-5,8-epiminocyclohepta[c]pyridine-10-carboxamide] | > 6.30
O=C(Nc1cc(Cl)c(Br)cc1F)N1[C@H]2CC[C@@H]1c1c[nH]c(=O)cc1C2 [Compound 141, (6S,9R)-N-(4-Bromo-5-chloro-2-fluorophenyl)-3-oxo-3,5,6,7,8,9-hexahydro-2H-6.9-epiminocyclohepta[c]pyridine-10-carboxamide] | > 6.30
C[C@H]1c2cnccc2[C@H]2CC[C@@H]1N2C(=O)Nc1ccc(Cl)c(Cl)c1 [Compound 134, (5R,8S,9S)-N-(3,4-Dichlorophenyl)-9-methyl-6,7,8,9-tetrahydro-5H-5,8-epiminocyclohepta[c]pyridine-10-carboxamide] | > 6.30
O=C(Nc1cc(Cl)c(C(F)(F)F)cc1F)N1[C@@H]2CC[C@H]1c1c[nH]c(=O)c(F)c1C2 [Compound 147, (6R,9S)-N-(5-Chloro-2-fluoro-4-(trifluoromethyl)phenyl)-4-fluoro-3-oxo-3,5,6,7,8,9-hexahydro-2H-6,9-epiminocyclohepta[c]pyridine-10-carboxamide] | > 6.30

Same assay, conditions: 1321N1-hrGPR65 cells, assay pH 7.2, cAMP HTRF; read-out: hGPR65 IC50 (activity class)

SMILES | pIC50
O=C(Nc1ccc(Cl)c(C(F)(F)F)c1)N1C2CCC1c1cncnc1C2 (racemic) [Compound 3, (±)-N-(4-Chloro-3-(trifluoromethyl)phenyl)-6,7,8,9-tetrahydro-5H-5,8-epiminocyclohepta[d]pyrimidine-10-carboxamide] | 5.30 to 6.30
O=C(Nc1ccc(Cl)c(Cl)c1)N1C2CCC1c1cc(F)ccc1C2 (racemic) [Compound 80, (±)-N-(3,4-Dichlorophenyl)-3-fluoro-6,7,8,9-tetrahydro-5H-5,8-epiminobenzo[7]annulene-10-carboxamide] | 5.30 to 6.30
O=C(Nc1ccc(C(F)(F)F)c(Cl)c1)N1C2CCC1c1cc(F)ccc1C2 (racemic) [Compound 81, (±)-N-(3-Chloro-4-(trifluoromethyl)phenyl)-3-fluoro-6,7,8,9-tetrahydro-5H-5,8-epiminobenzo[7]annulene-10-carboxamide] | 5.30 to 6.30
Nc1cc2c(cn1)C1CCC(C2)N1C(=O)Nc1ccc(Cl)c(Cl)c1 (racemic) [Compound 62, (±)-3-amino-N-(3,4-dichlorophenyl)-6,7,8,9-tetrahydro-5H-6,9-epiminocyclohepta[c]pyridine-10-carboxamide] | < 5.30
O=C(Nc1ccc(Cl)c(C(F)(F)F)c1)N1C2CCC1c1ccccc1C2 (racemic) [Compound 55, (±)-N-(4-Chloro-3-(trifluoromethyl)phenyl)-6,7,8,9-tetrahydro-5H-5,8-epiminobenzo[7]annulene-10-carboxamide] | 5.30 to 6.30
O=C(Nc1ccc(C(F)(F)F)c(Cl)c1)N1C2CCC1c1cnccc1C2 (racemic) [Compound 37, (±)-N-(3-Chloro-4-(trifluoromethyl)phenyl)-6,7,8,9-tetrahydro-5H-6,9-epiminocyclohepta[c]pyridine-10-carboxamide] | 5.30 to 6.30
O=C(Nc1cc(Cl)c(Cl)cc1F)N1[C@H]2CC[C@@H]1c1ccnc(C(F)(F)F)c1C2 [Compound 200, (5R,8S)-N-(4,5-dichloro-2-fluorophenyl)-1-(trifluoromethyl)-6,7,8,9-tetrahydro-5H-5,8-epiminocyclohepta[c]pyridine-10-carboxamide] | 5.30 to 6.30
O=C(Nc1ccc(Cl)c(Cl)c1)N1C2CCC1c1cnccc1C2 (racemic) [Compound 104, (±)-N-(3,4-Dichlorophenyl)-6,7,8,9-tetrahydro-5H-6,9-epiminocyclohepta[c]pyridine-10-carboxamide] | 5.30 to 6.30
O=C(Nc1ccc(Cl)c(Cl)c1)N1[C@H]2CC[C@@H]1c1cnccc1C2 [Compound 111, (6S,9R)-N-(3,4-Dichlorophenyl)-6,7,8,9-tetrahydro-5H-6,9-epiminocycloheptan[c]pyridine-10-carboxamide] | 5.30 to 6.30
O=C(Nc1ccc(Cl)c(C(F)(F)F)c1)N1C2CCC1c1cnc(-c3ccccc3)nc1C2 (racemic) [Compound 28, (±)-N-(4-Chloro-3-(trifluoromethyl)phenyl)-2-phenyl-6,7,8,9-tetrahydro-5H-5,8-epiminocyclohepta[d]pyrimidine-10-carboxamide] | < 5.30
O=C(Nc1ccc(Cl)c(Cl)c1)N1[C@@H]2CC[C@H]1c1ccnc(F)c1C2 [Compound 110, (5S,8R)-N-(3,4-Dichlorophenyl)-1-fluoro-6,7,8,9-tetrahydro-5H-5,8-epiminocyclohepta[c]pyridine-10-carboxamide] | < 5.30
O=C(Nc1cc(Cl)cc(Cl)c1)N1C2CCC1c1cncnc1C2 (racemic) [Compound 4, (±)-N-(3,5-Dichlorophenyl)-6,7,8,9-tetrahydro-5H-5,8-epiminocyclohepta[d]pyrimidine-10-carboxamide] | 5.30 to 6.30
